Measured values taken from US11352340B2, “Pyridine and pyridimine compounds as PI3K-gamma inhibitors” (Incyte Corporation, priority 2016, dated 2022).
Structures can show the parent of a compound that is named as a salt.

Legend:
[1] = biological target: PI3Kδ (p110δ/p85α) Recombinant Human Protein (Homo sapiens (Human), UniProt O00329); experiment: PI3Kδ Scintillation Proximity Assay; format: biochemical; settings: read-out: PI3K-delta SPA IC50
Method in brief: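 IC50 was fitted to percent solvent-control activity from SPA scintillation counts after WGA bead capture of 33P-labelled lipid product. Reaction: 120 min, room temperature, 3.4 nM p110δ/p85α, 20 μM PIP2, 2 μM ATP with tracer, MOPS pH 6.7 buffer containing MgCl2, DTT, CHAPS, 2% DMSO.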

[2] = biological target: PI3Kγ (p110γ) Recombinant Human Protein (Homo sapiens (Human), UniProt P48736); experiment: PI3K-γ Scintillation Proximity Assay; format: biochemical; settings: read-out: PI3K-gamma SPA IC50
Method in brief: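 Radiometric SPA: reaction at room temperature for 120 min using 2 μM ATP with [γ-33P]ATP tracer, 20 μM PIP2 substrate and 13 nM human PI3Kγ (MOPS pH 6.7, MgCl2, DTT, CHAPS; 2% DMSO). EDTA quench with WGA beads, scintillation count, and IC50 fit of percent-of-control activity.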

PI3Kδ (p110δ/p85α) Recombinant Human Protein, sequence (O00329 whole entry): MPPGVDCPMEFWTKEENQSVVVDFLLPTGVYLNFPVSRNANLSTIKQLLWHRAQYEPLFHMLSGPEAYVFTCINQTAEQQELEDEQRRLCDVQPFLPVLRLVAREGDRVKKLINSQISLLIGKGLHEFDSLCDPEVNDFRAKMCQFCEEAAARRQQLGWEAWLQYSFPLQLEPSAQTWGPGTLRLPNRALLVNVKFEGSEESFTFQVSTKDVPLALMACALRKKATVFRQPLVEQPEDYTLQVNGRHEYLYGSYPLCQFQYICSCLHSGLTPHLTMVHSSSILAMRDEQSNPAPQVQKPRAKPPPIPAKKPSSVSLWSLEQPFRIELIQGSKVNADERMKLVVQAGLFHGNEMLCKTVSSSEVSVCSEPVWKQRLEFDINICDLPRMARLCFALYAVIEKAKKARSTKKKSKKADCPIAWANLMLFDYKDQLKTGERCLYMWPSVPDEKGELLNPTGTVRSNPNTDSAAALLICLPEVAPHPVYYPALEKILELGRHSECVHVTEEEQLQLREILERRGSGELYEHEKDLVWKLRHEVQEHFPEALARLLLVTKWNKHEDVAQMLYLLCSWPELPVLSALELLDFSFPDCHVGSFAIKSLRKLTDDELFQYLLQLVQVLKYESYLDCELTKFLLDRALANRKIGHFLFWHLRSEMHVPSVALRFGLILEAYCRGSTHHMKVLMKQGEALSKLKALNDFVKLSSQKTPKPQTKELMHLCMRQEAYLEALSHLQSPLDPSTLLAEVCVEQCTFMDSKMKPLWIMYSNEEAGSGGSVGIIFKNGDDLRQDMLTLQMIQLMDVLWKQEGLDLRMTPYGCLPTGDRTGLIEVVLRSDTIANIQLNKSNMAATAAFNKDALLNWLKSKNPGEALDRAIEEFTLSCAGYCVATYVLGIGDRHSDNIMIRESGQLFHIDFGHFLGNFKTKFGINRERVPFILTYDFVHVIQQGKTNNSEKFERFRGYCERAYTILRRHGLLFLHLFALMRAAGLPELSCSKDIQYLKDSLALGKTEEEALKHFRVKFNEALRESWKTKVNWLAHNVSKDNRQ
PI3Kδ (p110δ/p85α) Recombinant Human Protein, sequence (P27986 whole entry partner): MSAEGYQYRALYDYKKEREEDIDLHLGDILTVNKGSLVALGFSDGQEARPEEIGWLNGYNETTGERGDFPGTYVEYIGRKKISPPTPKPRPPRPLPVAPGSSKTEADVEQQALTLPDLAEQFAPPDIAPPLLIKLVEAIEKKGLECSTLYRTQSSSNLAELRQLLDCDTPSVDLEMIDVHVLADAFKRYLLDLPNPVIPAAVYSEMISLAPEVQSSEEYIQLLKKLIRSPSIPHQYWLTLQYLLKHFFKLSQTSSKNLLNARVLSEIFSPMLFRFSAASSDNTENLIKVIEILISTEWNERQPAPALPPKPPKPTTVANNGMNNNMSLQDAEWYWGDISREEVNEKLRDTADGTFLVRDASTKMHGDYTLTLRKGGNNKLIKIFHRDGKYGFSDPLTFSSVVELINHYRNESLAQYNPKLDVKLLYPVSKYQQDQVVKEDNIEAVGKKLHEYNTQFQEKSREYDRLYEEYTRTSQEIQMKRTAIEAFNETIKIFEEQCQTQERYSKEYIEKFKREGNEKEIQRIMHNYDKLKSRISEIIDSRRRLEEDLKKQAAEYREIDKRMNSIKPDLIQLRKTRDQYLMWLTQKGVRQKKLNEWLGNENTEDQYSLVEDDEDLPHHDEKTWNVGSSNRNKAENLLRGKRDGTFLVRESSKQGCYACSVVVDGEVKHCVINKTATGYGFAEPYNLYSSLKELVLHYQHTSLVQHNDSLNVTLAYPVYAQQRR
PI3Kγ (p110γ) Recombinant Human Protein, sequence (P48736 whole entry): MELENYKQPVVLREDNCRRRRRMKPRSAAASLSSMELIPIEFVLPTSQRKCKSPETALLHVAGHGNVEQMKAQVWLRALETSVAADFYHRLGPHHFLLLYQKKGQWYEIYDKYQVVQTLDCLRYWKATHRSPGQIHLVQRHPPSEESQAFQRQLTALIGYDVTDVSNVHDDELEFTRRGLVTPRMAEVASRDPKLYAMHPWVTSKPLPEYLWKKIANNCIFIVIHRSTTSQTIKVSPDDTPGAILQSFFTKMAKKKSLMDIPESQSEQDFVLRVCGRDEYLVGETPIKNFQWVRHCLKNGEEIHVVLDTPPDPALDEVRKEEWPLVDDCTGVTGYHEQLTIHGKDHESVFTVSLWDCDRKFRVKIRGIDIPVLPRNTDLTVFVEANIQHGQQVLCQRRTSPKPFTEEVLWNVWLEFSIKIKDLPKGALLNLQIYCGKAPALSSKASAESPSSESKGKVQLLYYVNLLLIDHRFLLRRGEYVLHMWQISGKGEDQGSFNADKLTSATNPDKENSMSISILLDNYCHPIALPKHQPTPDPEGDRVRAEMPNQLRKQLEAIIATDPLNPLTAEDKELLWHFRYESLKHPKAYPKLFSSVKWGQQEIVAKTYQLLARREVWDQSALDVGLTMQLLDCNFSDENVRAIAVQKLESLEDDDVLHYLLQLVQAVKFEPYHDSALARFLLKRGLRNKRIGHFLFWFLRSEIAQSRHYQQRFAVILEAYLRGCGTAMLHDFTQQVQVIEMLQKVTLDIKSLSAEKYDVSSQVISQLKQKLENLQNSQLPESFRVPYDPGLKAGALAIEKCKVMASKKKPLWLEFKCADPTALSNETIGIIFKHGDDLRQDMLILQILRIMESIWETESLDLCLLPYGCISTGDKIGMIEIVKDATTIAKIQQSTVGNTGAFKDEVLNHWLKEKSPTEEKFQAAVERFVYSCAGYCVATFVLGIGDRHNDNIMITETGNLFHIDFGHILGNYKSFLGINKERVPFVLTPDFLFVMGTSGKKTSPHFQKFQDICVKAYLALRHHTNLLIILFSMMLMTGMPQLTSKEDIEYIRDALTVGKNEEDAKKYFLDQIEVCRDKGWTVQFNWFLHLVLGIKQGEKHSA

SMILES	IC50 [1] [nM]	IC50 [2] [nM]
CNCc1nc(-c2cc(-c3cncc(N4CCOCC4)c3)ccn2)[nH]c1C [Example 288, N-Methyl-1-[5-methyl-2-(5-morpholin-4-yl-3,4′-bipyridin-2′-yl)-1H-imidazol-4-yl]methanamine]	≤ 500	> 500
Cc1[nH]c(-c2cc(-c3cncc(N4CCOCC4)c3)ccn2)nc1C(=O)O [Example 257, 5-Methyl-2-(5-morpholin-4-yl-3,4′-bipyridin-2′-yl)-1H-imidazole-4-carboxylic Acid Trifluoroacetate Salt]	> 500	≤ 500
Clc1cccc(Cn2cc(-c3ccnc(-c4ncc(-c5ccccc5)[nH]4)c3)cn2)c1 [Example 21, 4-(1-(3-Chlorobenzyl)-1H-pyrazol-4-yl)-2-(5-phenyl-1H-imidazol-2-yl)pyridine trifluoroacetate salt]	> 500	≤ 500
Cc1nc(-c2cc(C3=CCN(Cc4ccccc4)C3)ccn2)[nH]c1C [Example 228, 4-(1-Benzyl-2,5-dihydro-1H-pyrrol-3-yl)-2-(4,5-dimethyl-1H-imidazol-2-yl)pyridine trifluoroacetate salt]	> 500	> 500
O=C(O)c1ccc(Cn2cc(-c3ccnc(-c4ncc(-c5ccccc5)[nH]4)c3)cn2)cc1 [Example 35, 4-((4-(2-(5-Phenyl-1H-imidazol-2-yl)pyridin-4-yl)-1H-pyrazol-1-yl)methyl)benzoic acid trifluoroacetate salt]	≤ 500	≤ 500
COC(=O)c1ccccc1Cn1cc(-c2ccnc(-c3ncc(-c4ccccc4)[nH]3)c2)cn1 [Example 30, Methyl 2-((4-(2-(5-phenyl-1H-imidazol-2-yl)pyridin-4-yl)-1H-pyrazol-1-yl)methyl)benzoate trifluoroacetate salt]	> 500	> 500
Cc1nc(-c2cc(-c3cncc(C4=CCNC4)c3)ccn2)[nH]c1C [Example 236, 5-(2,5-Dihydro-1H-pyrrol-3-yl)-2′-(4,5-dimethyl-1H-imidazol-2-yl)-3,4′-bipyridine]	> 500	> 500
COc1cncc(-c2ccnc(-c3cnc(N)[nH]3)c2)c1 [Example 61, 5-(5-Methoxy-3,4′-bipyridin-2′-yl)-1H-imidazol-2-amine]	> 500	> 500
Cc1nc(-c2cc(C3=CCCN(C(=O)c4ccccc4)C3)ccn2)[nH]c1C [Example 222, (3-(2-(4,5-Dimethyl-1H-imidazol-2-yl)pyridin-4-yl)-5,6-dihydropyridin-1(2H)-yl)(phenyl)methanone trifluoroacetate salt]	> 500	> 500

More lines, now with the values ahead:

IC50 [1] [nM]	IC50 [2] [nM]	SMILES
≤ 500	≤ 500	COc1cncc(-c2ccnc(-c3nc4c([nH]3)CCC4)c2)c1 [Example 78, 2-(5-Methoxy-3,4′-bipyridin-2′-yl)-1,4,5,6-tetrahydrocyclopenta[d]imidazole]
≤ 500	≤ 100	Cc1nc(-c2cc(-c3cncc(C(=O)N4CCOCC4)c3)ccn2)[nH]c1C [Example 148, (2′-(4,5-Dimethyl-1H-imidazol-2-yl)-3,4′-bipyridin-5-yl)(morpholino)methanone]
> 500	> 500	CC(=O)N1CC=C(c2ccnc(-c3nc(C)c(C)[nH]3)c2)CC1 [Example 217, 1(4-(2-(4,5-Dimethyl-1H-imidazol-2-yl)pyridin-4-yl)-5,6-dihydropyridin-1(2H)-yl)ethanone trifluoroacetate salt]
> 500	≤ 500	COc1cncc(-c2ccnc(-c3cnc(NCC(C)C)[nH]3)c2)c1 [Example 64, N-Isobutyl-5-(5-methoxy-3,4′-bipyridin-2′-yl)-1H-imidazol-2-amine trifluoroacetate salt]
≤ 50	≤ 100	COCCNC(=O)c1cncc(-c2ccnc(-c3nc(C)c(C)[nH]3)c2)c1 [Example 166, 2′-(4,5-Dimethyl-1H-imidazol-2-yl)-N-(2-methoxyethyl)-3,4′-bipyridine-5-carboxamide trifluoroacetate salt]
